Values joined by “and” are separate entries in the source; they are usually repeats but may differ in a detail not shown here. Equal entries are not always repeated. Marks after values point to notes of the source that are not given here.
Assays:
[1] = system: SCNT embryos transferred into surrogate gilt; assay: Embryo transfer, in vivo development competence of SCNT embryos
Description: To address in vivo competency of SCNT embryos activated by utilizing TPEN, a series of embryo transfers were performed. For the study, at day 1, the SCNT-derived embryos were surgically transferred into the ampullary-isthmic junction of a surrogate gilt at 0 or 1 days after observed estrus. At the end of gestation periods, piglets were recovered through C-section.
Six embryo transfers were performed for the study and two surrogates carried their pregnancy to term, each resulting in two healthy piglets (Table 6). One of the term development was from SCNT embryos that were not treated with a HDAC inhibitor, Scriptaid.

[2] = system: activated porcine oocytes; assay: Treatment of chemically (THI/DTT) activated oocytes with TPEN, parthenogenetic embryo development; format: cell-based, pig
Description: Oocytes were obtained from either pre-pubertal gilt ovaries from an abattoir (Farmland Foods Inc., Milan, Mo.), or sow-derived oocytes that were purchased from Applied Reproductive Technology (Madison, Wis.). Immature oocytes from gilt ovaries were aspirated from medium size (3-6 mm) follicles by using an 18 gauge hypodermic needle attached to a 10 mL syringe. Oocytes with evenly dark cytoplasm and intact surrounding cumulus cells were then selected for maturation. Around 50 cumulus oocyte complexes were place in a well containing 500 μL of maturation medium, TCM 199 (Invitrogen, Grand Island, N.Y.) with 3.05 mM glucose, 0.91 mM sodium pyruvate, 0.57 mM cysteine, 10 ng/mL epidermal growth factor (EGF), 0.5 mg/mL luteinizing hormone (LH), 0.5 mg/mL follicle stimulating hormone (FSH), 10 ng/mL gentamicin (APP Pharm, Schaumburg, Ill.), and 0.1% polyvinyl alcohol (PVA) for 42-44 hr at 38.5° C., 5% CO2, in humidified air. […] At the end of the maturation, the surrounding cumulus cells were removed from the oocytes by vortexing for 3 min in the presence of 0.1% hyaluronidase. Oocytes with a visible polar body were selected in manipulation medium (TCM199 with 0.6 mM NaHCO3, 2.9 mM Hepes, 30 mM NaCl, 10 ng/mL gentamicin, and 3 mg/mL bovine serum albumin [BSA]; and osmolarity of 305) and then used for the experiments. Different oocyte activation methods were used for the experiments. As conventional activation methods, either electrical or chemical activation was used. For electrical activation, mature oocytes were activated in activation medium (0.3 M mannitol, 1.0 mM CaCl2, 0.1 mM MgCl2, and 0.5 mM Hepes) by two direct-current (DC) pulses (1-sec interval) at 1.2 kV/cm for 30 μsec (using BTX Electro Cell Manipulator, Harvard Apparatus, Holliston, Mass.). […] For TPEN mediated activation, mature oocytes were incubated in TL-Hepes media with various concentrations of TPEN for different durations. […] At the end of the culture, where applicable, the frequency of cleaved embryos and blastocysts, and total cell number in the blastocysts were recorded. Hoechst 33342 (1.2 mg/mL) was used to stain nuclei and the embryos were then evaluated by epi-fluorescence microscopy. Treatment of activated oocytes with TPEN was investigated for the potential to increase the efficiency of oocyte activation. […] It was hypothesized that the detrimental effect was due to excess stimuli from Ca^2+ signaling and TPEN. Therefore, lower concentrations of TPEN were introduced after activating oocytes with a conventional method. Incubating activated oocytes with a lower concentration of TPEN increased developmental potential of parthenogenetic embryos.

porcine oocytes = assay: TPEN as main oocyte activating reagent after a smaller Ca2+ increase (electroporation in 0.1 mM Ca2+); format: cell-based, pig; conditions: for Day 6 Blastocysts (%) / Day 7 Blastocysts (%): 0.1 mM Ca2+ electroporation
Description: Oocytes were obtained from either pre-pubertal gilt ovaries from an abattoir (Farmland Foods Inc., Milan, Mo.), or sow-derived oocytes that were purchased from Applied Reproductive Technology (Madison, Wis.). Immature oocytes from gilt ovaries were aspirated from medium size (3-6 mm) follicles by using an 18 gauge hypodermic needle attached to a 10 mL syringe. Oocytes with evenly dark cytoplasm and intact surrounding cumulus cells were then selected for maturation. Around 50 cumulus oocyte complexes were place in a well containing 500 μL of maturation medium, TCM 199 (Invitrogen, Grand Island, N.Y.) with 3.05 mM glucose, 0.91 mM sodium pyruvate, 0.57 mM cysteine, 10 ng/mL epidermal growth factor (EGF), 0.5 mg/mL luteinizing hormone (LH), 0.5 mg/mL follicle stimulating hormone (FSH), 10 ng/mL gentamicin (APP Pharm, Schaumburg, Ill.), and 0.1% polyvinyl alcohol (PVA) for 42-44 hr at 38.5° C., 5% CO2, in humidified air. […] At the end of the maturation, the surrounding cumulus cells were removed from the oocytes by vortexing for 3 min in the presence of 0.1% hyaluronidase. Oocytes with a visible polar body were selected in manipulation medium (TCM199 with 0.6 mM NaHCO3, 2.9 mM Hepes, 30 mM NaCl, 10 ng/mL gentamicin, and 3 mg/mL bovine serum albumin [BSA]; and osmolarity of 305) and then used for the experiments. Different oocyte activation methods were used for the experiments. As conventional activation methods, either electrical or chemical activation was used. For electrical activation, mature oocytes were activated in activation medium (0.3 M mannitol, 1.0 mM CaCl2, 0.1 mM MgCl2, and 0.5 mM Hepes) by two direct-current (DC) pulses (1-sec interval) at 1.2 kV/cm for 30 μsec (using BTX Electro Cell Manipulator, Harvard Apparatus, Holliston, Mass.). […] For TPEN mediated activation, mature oocytes were incubated in TL-Hepes media with various concentrations of TPEN for different durations. […] At the end of the culture, where applicable, the frequency of cleaved embryos and blastocysts, and total cell number in the blastocysts were recorded. Hoechst 33342 (1.2 mg/mL) was used to stain nuclei and the embryos were then evaluated by epi-fluorescence microscopy. […] The ability of TPEN as the main activating reagent was therefore tested. […] Then the oocytes were incubated with various concentrations (1 μM, 5 μM, 10 μM, 100 μM and 200 μM) and durations (10 minutes, 20 minutes, 30 minutes, 1 hour, 2 hours, and overnight) of TPEN. […] Optimal oocyte activation was observed when oocytes were activated by a smaller Ca^2+ signal followed by incubating in 200 μM TPEN for 30 min.

With `c1ccc(CN(CCN(Cc2ccccn2)Cc2ccccn2)Cc2ccccn2)nc1` [TPEN, N,N,N′,N′-tetrakis(2-pyridylmethyl)ethane-1,2-diamine] as the molecule, how does the “Result of embryo transfer” value ([1]; SCNT + 5 μM TPEN, 30 min + Scriptaid) read?
The value was 2 normal piglets were and Cycled.

And the “Result of embryo transfer” value ([1]; SCNT + 5 μM TPEN, 30 min, no Scriptaid)?
Its value is 2 normal piglets were and Cycled.

What about the “Result of embryo transfer” value ([1]; SCNT + 10 μM TPEN, 10 min + Scriptaid) of the same molecule?
Its value is “Cycled”.

And the “toxicity to SCNT embryos, full term development” value ([1]; embryo transfers of TPEN treated SCNT embryos)?
Its value is “not toxic to the SCNT embryos”.

What about the “% blastocysts” value ([2]; THI/DTT + 5 μM TPEN, 30 min) of the same molecule?
The value was 27.2±1.7% and 27.2^b %.

What about the “% cleaved” value ([2]; THI/DTT + 5 μM TPEN, 30 min) of the same molecule?
Its value is 74.6^b %.

What about the “Total cell number in blastocysts” value ([2]; THI/DTT + 5 μM TPEN, 30 min) of the same molecule?
Its value is 33.1 ± 2.6^b.

And the “% blastocysts” value ([2]; THI/DTT + 10 μM TPEN, 10 min)?
Its value is 21.7^b %.

What about the “% cleaved” value ([2]; THI/DTT + 10 μM TPEN, 10 min) of the same molecule?
The value was 81.9^b %.

And the “Total cell number in blastocysts” value ([2]; THI/DTT + 10 μM TPEN, 10 min)?
Its value is 31.2 ± 2.6^b.

What about the blastocyst formation ([2]; chemically activated oocytes incubated with TPEN 100 μM, 45 min) of the same molecule?
The blastocyst formation was “no blastocyst formation was observed”.

And the “cell numbers in day 7 blastocysts” value (porcine oocytes; 1 μM TPEN overnight)?
The value was 24.80±7.84.

And the “number of blastocysts at day 6 and 7” value (porcine oocytes; 1 μM TPEN overnight)?
Its value is “increased number of blastocysts”.

What about the “cell numbers in day 7 blastocysts” value (porcine oocytes; 10 μM TPEN for 1 hour) of the same molecule?
Its value is 30.17±5.97.

And the “cell numbers in day 7 blastocysts” value (porcine oocytes; 10 μM TPEN for 2 hours)?
The value was 29.63±10.47.

What about the “cell numbers in day 7 blastocysts” value (porcine oocytes; 100 μM TPEN for 20 minutes) of the same molecule?
Its value is 50.75±17.94.

What about the “Day 6 Blastocysts (%)” value (porcine oocytes; then TPEN 10 μM, 30 min) of the same molecule?
Its value is 0% and 0^b %.

What about the “Day 7 Blastocysts (%)” value (porcine oocytes; then TPEN 10 μM, 30 min) of the same molecule?
The value was 5^b %.

And the “Day 6 Blastocysts (%)” value (porcine oocytes; then TPEN 10 μM, 1 hour)?
Its value is 15^a %.

What about the “Day 7 Blastocysts (%)” value (porcine oocytes; then TPEN 10 μM, 1 hour) of the same molecule?
The value was 22.5^a %.

And the “Day 6 Blastocysts (%)” value (porcine oocytes; then TPEN 10 μM, 2 hours)?
The value was 15^a %.

What about the “Day 7 Blastocysts (%)” value (porcine oocytes; then TPEN 10 μM, 2 hours) of the same molecule?
Its value is 25^a %.

What about the “Day 6 Blastocysts (%)” value (porcine oocytes; then TPEN 100 μM, 10 min) of the same molecule?
The value was 15^a %.

And the “Day 7 Blastocysts (%)” value (porcine oocytes; then TPEN 100 μM, 10 min)?
Its value is 15^a %.

What about the “Day 6 Blastocysts (%)” value (porcine oocytes; then TPEN 100 μM, 20 min) of the same molecule?
The value was 25^a %.

And the “Day 7 Blastocysts (%)” value (porcine oocytes; then TPEN 100 μM, 20 min)?
The value was 30^a %.

And the “Day 6 Blastocysts (%)” value (porcine oocytes; then TPEN 200 μM, 30 min)?
The value was 37.04^c %.

What about the “Day 7 Blastocysts (%)” value (porcine oocytes; then TPEN 200 μM, 30 min) of the same molecule?
Its value is 41.98^c %.

And the “Day 6 Blastocysts (%)” value (porcine oocytes; then TPEN 200 μM, 1 hour)?
The value was 18.75^a %.

What about the “Day 7 Blastocysts (%)” value (porcine oocytes; then TPEN 200 μM, 1 hour) of the same molecule?
Its value is 27.5^a %.
